Experimental data taken from US7666875B2, “Hydantoin compounds” (Eisai R&D Management Co., Ltd., priority 2005, dated 2010).

What follows are compounds tested against T1, human T-bet (Homo sapiens, UniProt Q9UL17) (assay: HEKT-bet-luc assay (T-bet dependent luciferase reporter in engineered HEK cells)). Settings: Table 3; HEKT-bet cells, compound 24 hours; IC50 normalized to reference ER-213038; read-out: IC50.
T1 construct: expressed in transfected cells; host or cells: engineered HEK cells (HEKT-bet)
T1 sequence (Q9UL17 1-535): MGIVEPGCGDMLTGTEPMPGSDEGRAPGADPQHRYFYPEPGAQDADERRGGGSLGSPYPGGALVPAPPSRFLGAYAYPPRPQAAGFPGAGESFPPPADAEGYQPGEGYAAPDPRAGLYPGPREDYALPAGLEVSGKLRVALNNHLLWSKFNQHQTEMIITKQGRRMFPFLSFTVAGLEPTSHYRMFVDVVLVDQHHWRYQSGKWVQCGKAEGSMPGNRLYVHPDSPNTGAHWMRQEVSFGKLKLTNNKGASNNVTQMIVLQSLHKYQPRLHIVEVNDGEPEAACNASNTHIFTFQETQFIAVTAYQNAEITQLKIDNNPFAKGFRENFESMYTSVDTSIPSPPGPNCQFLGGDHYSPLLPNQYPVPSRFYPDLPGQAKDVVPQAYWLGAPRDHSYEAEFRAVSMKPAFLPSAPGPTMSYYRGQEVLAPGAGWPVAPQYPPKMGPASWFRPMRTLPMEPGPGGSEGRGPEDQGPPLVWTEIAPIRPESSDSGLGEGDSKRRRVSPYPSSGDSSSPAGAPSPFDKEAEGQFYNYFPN
Type: cell-based
Experimental: HEKT-bet-luc assay: This assay measures a T-bet dependent reporter (luciferase) activity in engineered HEK cells that express a human T-bet and a T-box responsive element driving luciferase reporter. HEKT-bet cells were plated at 2×10^4/well in 96-well plate and compound was added into cell culture for 24 hours. Luciferase activity was measured by adding 50 μl of Steady-Glo reagent (Promega) and samples were read in Victor V reader (PerkinElmer). The IC50 values were calculated utilizing a maximum value corresponding to the amount of luciferase in the absence of a test compound and a minimum value corresponding to a test compound value obtained at maximum inhibition.
Determination of Normalized HEKT-bet IC50 values: Compounds were assayed in microtiter plates. Each plate included a reference compound which was ER-213038. The un-normalized IC50 value for a particular compound was divided by the IC50 value determined for the reference compound in the same microtiter plate to provide a relative potency value. The relative potency value was then multiplied by the established potency of the reference compound to provide the normalized HEKT-bet IC50 value. […] The IC50 values provided herein were obtained using this normalization method.

Q: `COCCN1C(=O)N(CCCc2cccnc2)C(=O)C12CCN(Cc1ccnc3ccccc13)CC2` [Example 81] was tested. Which IC50 did it give?
A: The IC50 was 650 nM.

Q: With `COCCN1C(=O)N(CC#Cc2cccc(OC)c2)C(=O)C12CCN(Cc1ccccc1)CC2` [Example 82] as the compound, how does the IC50 read?
A: Its IC50 is 650 nM.

Q: Which IC50 does the source give for `COc1cc(CN2CCC3(CC2)C(=O)N(C/C=C/c2ccccc2)C(=O)N3CCn2cccc2)cc(OC)c1` [Example 83] here?
A: Its IC50 is 667 nM.

Q: With `COCCN1C(=O)N(Cc2cccc(OC)c2)C(=O)C12CCN(Cc1cccc(-c3cccc(O)c3)c1)CC2` [Example 84] as the compound, how does the IC50 read?
A: Its IC50 is 681 nM.

Q: Which IC50 does the source give for `COCCN1C(=O)N(Cc2cccc(OC)c2)C(=O)C12CCN(Cc1cccc(-c3ccsc3)c1)CC2` [Example 85] here?
A: Its IC50 is 750 nM.

Q: Which IC50 does the source give for `COc1cc(CN2CCC3(CC2)C(=O)N(C/C=C/c2ccccc2)C(=O)N3CC=C(C)C)cc(OC)c1` [Example 86] here?
A: Its IC50 is 757 nM.

Q: With `COCCN1C(=O)N(Cc2cccc(OC)c2)C(=O)C12CCN(Cc1c(Cl)cccc1Cl)CC2` [Example 87] as the compound, how does the IC50 read?
A: Its IC50 is 782 nM.

Q: How did the IC50 turn out when `O=C1N(C/C=C/c2ccccc2)C(=O)C2(CCN(Cc3cccc4ccccc34)CC2)N1CCCO` [Example 88] was run?
A: Its IC50 is 798 nM.

Q: `COCCN1C(=O)N(C/C=C/Cc2cccc(OC)c2)C(=O)C12CCN(Cc1ccccc1)CC2` [Example 89] was tested. Which IC50 did it give?
A: The IC50 was 835 nM.

Q: How did the IC50 turn out when `COCCN1C(=O)N(CCCc2ccccc2)C(=O)C12CCN(Cc1ccccc1)CC2` [Example 90] was run?
A: Its IC50 is 838 nM.

Q: How did the IC50 turn out when `COCCN1C(=O)N(Cc2cccc(OC)c2)C(=O)C12CCN(Cc1cc(C)c(C)s1)CC2` [Example 91] was run?
A: Its IC50 is 845 nM.

Q: Which IC50 does the source give for `COCCN1C(=O)N(Cc2cccc(OC)c2)C(=O)C12CCN(Cc1cccc(-c3ccc4[nH]ccc4c3)c1)CC2` [Example 92] here?
A: Its IC50 is 868 nM.

Q: Which IC50 does the source give for `COCCN1C(=O)N(CCCCCCCCO)C(=O)C12CCN(Cc1ccccc1)CC2` [Example 93] here?
A: Its IC50 is 914 nM.

Q: For `COCCN1C(=O)N(Cc2ccoc2)C(=O)C12CCN(Cc1cc(OC)cc(OC)c1)CC2` [Example 94], which IC50 is on record?
A: The IC50 was 936 nM.

Q: `CCN1C(=O)N(Cc2ccc3ccccc3c2)C(=O)C12CCN(Cc1ccc3ccccc3c1)CC2` [Example 95] was tested. Which IC50 did it give?
A: Its IC50 is 970 nM.

Q: For `COCCN1C(=O)N(Cc2ccc3cc4ccccc4cc3c2)C(=O)C12CCN(Cc1ccccc1)CC2` [Example 96], which IC50 is on record?
A: Its IC50 is 1030 nM.

Q: How did the IC50 turn out when `COc1cccc(CN2CCC3(CC2)C(=O)N(Cc2cc(OC)cc(OC)c2)C(=O)N3Cc2ccc3c(c2)nnn3C)c1` [Example 97] was run?
A: The IC50 was 1080 nM.

Q: How did the IC50 turn out when `COc1cccc(CN2C(=O)N(Cc3cccc(C#N)c3)C3(CCN(Cc4ccccc4)CC3)C2=O)c1` [Example 98] was run?
A: The IC50 was 1100 nM.

Q: `COc1cc(CN2CCC3(CC2)C(=O)N(Cc2cc(OC)cc(OC)c2)C(=O)N3CSC)cc(OC)c1` [Example 99] was tested. Which IC50 did it give?
A: Its IC50 is 1150 nM.

Q: Which IC50 does the source give for `COCCN1C(=O)N(Cc2ccc(C(=O)c3ccccc3)cc2)C(=O)C12CCN(Cc1ccccc1)CC2` [Example 100] here?
A: The IC50 was 1240 nM.

Q: `COCCN1C(=O)N(Cc2cccc(OC)c2)C(=O)C12CCN(Cc1cccc3nsnc13)CC2` [Example 101] was tested. Which IC50 did it give?
A: Its IC50 is 1240 nM.

Q: Which IC50 does the source give for `COCCN1C(=O)N(Cc2cccc(OC)c2)C(=O)C12CCN(Cc1cc(F)cc3c1OCOC3)CC2` [Example 102] here?
A: The IC50 was 1320 nM.

Q: Which IC50 does the source give for `COCCN1C(=O)N(Cc2cccc(OC)c2)C(=O)C12CCN(Cc1ccccc1OC(F)(F)F)CC2` [Example 103] here?
A: Its IC50 is 1340 nM.

Q: `CCOC(=O)CCCCN1C(=O)N(Cc2cccc(OC)c2)C(=O)C12CCN(Cc1ccccc1)CC2` [Example 104] was tested. Which IC50 did it give?
A: The IC50 was 1390 nM.

Q: How did the IC50 turn out when `COc1cccc(CN2C(=O)N(Cc3cccc4cccnc34)C3(CCN(Cc4cccc5ccccc45)CC3)C2=O)c1` [Example 105] was run?
A: The IC50 was 1390 nM.

Q: How did the IC50 turn out when `COCCN1C(=O)N(Cc2cccc(OC)c2)C(=O)C12CCN(C1CCc3ccc(C)cc31)CC2` (stereo not drawn) [Example 106] was run?
A: Its IC50 is 1420 nM.

Q: Which IC50 does the source give for `COCCN1C(=O)N(CC(=O)c2ccc3ccccc3c2)C(=O)C12CCN(Cc1ccccc1)CC2` [Example 107] here?
A: Its IC50 is 1460 nM.

Q: With `COCCN1C(=O)N(Cc2cccc(OC)c2)C(=O)C12CCN(C/C=C/c1ccc(OC)cc1)CC2` [Example 108] as the compound, how does the IC50 read?
A: Its IC50 is 1470 nM.

Q: `COc1cccc(CN2C(=O)N(CC=C(C)C)C3(CCN(Cc4ccccc4)CC3)C2=O)c1` [Example 109] was tested. Which IC50 did it give?
A: The IC50 was 1520 nM.

Q: How did the IC50 turn out when `COCCN1C(=O)N(Cc2cccc(OC)c2)C(=O)C12CCN(CC=C(c1ccccc1)c1ccccc1)CC2` [Example 110] was run?
A: Its IC50 is 1540 nM.

Q: `COCCN1C(=O)N(Cc2cccc(OC)c2)C(=O)C12CCN(Cc1cc(F)c(O)c(OC)c1)CC2` [Example 111] was tested. Which IC50 did it give?
A: Its IC50 is 1550 nM.

Q: `COc1cccc(CN2C(=O)N(CCOCc3ccccc3)C3(CCN(Cc4ccccc4)CC3)C2=O)c1` [Example 112] was tested. Which IC50 did it give?
A: The IC50 was 1570 nM.

Q: `COCCN1C(=O)N(Cc2cccc(OC)c2)C(=O)C12CCN(CC(=O)C13CC4CC(CC(C4)C1)C3)CC2` [Example 113] was tested. Which IC50 did it give?
A: Its IC50 is 1650 nM.

Q: `COCCN1C(=O)N(Cc2cc(C(C)(C)C)cc(C(C)(C)C)c2)C(=O)C12CCN(Cc1ccccc1)CC2` [Example 114] was tested. Which IC50 did it give?
A: The IC50 was 1740 nM.

Q: With `COCCN1C(=O)N(Cc2cccc(OC)c2)C(=O)C12CCN(Cc1ccc3ccc4cccc5ccc1c3c45)CC2` [Example 115] as the compound, how does the IC50 read?
A: Its IC50 is 1810 nM.

Q: Which IC50 does the source give for `COc1cccc(CN2C(=O)N(Cc3ccc(Cl)cc3)C3(CCN(Cc4ccccc4)CC3)C2=O)c1` [Example 116] here?
A: The IC50 was 1830 nM.

Q: With `COCCN1C(=O)N(CCCCOc2ccccc2)C(=O)C12CCN(Cc1ccccc1)CC2` [Example 117] as the compound, how does the IC50 read?
A: The IC50 was 1840 nM.

Q: For `COCCN1C(=O)N(Cc2cccc(OC)c2)C(=O)C12CCN(Cc1cc(O)c(OC)c(OC)c1)CC2` [Example 118], which IC50 is on record?
A: Its IC50 is 1880 nM.

Q: `COCCN1C(=O)N(CCOCc2ccccc2)C(=O)C12CCN(Cc1ccccc1)CC2` [Example 119] was tested. Which IC50 did it give?
A: The IC50 was 1930 nM.

Q: For `COCCN1C(=O)N(Cc2cccc(OC)c2)C(=O)C12CCN(Cc1ccc(-c3cccs3)s1)CC2` [Example 120], which IC50 is on record?
A: The IC50 was 1990 nM.

Same assay, conditions: Table 4; HEKT-bet cells, compound 24 hours; IC50 normalized to reference ER-213038; read-out: IC50

Q: `COc1cc(CN2CCC3(CC2)C(=O)N(C/C=C/c2ccccc2)C(=O)N3C)cc(OC)c1` [Example 121] was tested. Which IC50 did it give?
A: Its IC50 is 25 nM.

Q: How did the IC50 turn out when `COCCN1C(=O)N(Cc2cccc(OC)c2)C(=O)C12CCN(Cc1c(C)ccc3ccccc13)CC2` [Example 123] was run?
A: Its IC50 is 60 nM.

Q: How did the IC50 turn out when `CCN1C(=O)N(C/C=C/c2ccccc2)C(=O)C12CCN(Cc1cccc(C)c1)CC2` [Example 125] was run?
A: The IC50 was 68 nM.

Q: With `COc1cc(CN2CCC3(CC2)C(=O)N(C/C=C/c2ccccc2)C(=O)N3Cc2cccc(-n3cccc3)c2)cc(OC)c1` [Example 126] as the compound, how does the IC50 read?
A: Its IC50 is 73 nM.

Q: With `COCCN1C(=O)N(Cc2cccc(OC)c2)C(=O)C12CCN(Cc1ccc(C)c3ccccc13)CC2` [Example 127] as the compound, how does the IC50 read?
A: The IC50 was 82 nM.

Q: `COCCN1C(=O)N(Cc2cccc(OC)c2)C(=O)C12CCN(Cc1cccc3ccccc13)CC2` [Example 128] was tested. Which IC50 did it give?
A: Its IC50 is 86 nM.

Q: Which IC50 does the source give for `COCCN1C(=O)N(Cc2cccc(OC)c2)C(=O)C12CCN(Cc1c(OC)ccc3ccccc13)CC2` [Example 129] here?
A: Its IC50 is 94 nM.

Q: For `COCCN1C(=O)N(C/C=C/c2ccccc2)C(=O)C12CCN(Cc1cccc3ccccc13)CC2` [Example 131], which IC50 is on record?
A: Its IC50 is 100 nM.

Q: `COCCN1C(=O)N(C/C=C/c2ccccc2)C(=O)C12CCN(Cc1cccc(OC)c1)CC2` [Example 132] was tested. Which IC50 did it give?
A: The IC50 was 101 nM.

Q: How did the IC50 turn out when `COCCN1C(=O)N(Cc2cccc(OC)c2)C(=O)C12CCN(Cc1cccc3ccccc13)CC2` [Example 133] was run?
A: The IC50 was 119 nM.

Q: With `COCCN1C(=O)N(Cc2cccc(OC)c2)C(=O)C12CCN(Cc1cccc(C)c1C)CC2` [Example 134] as the compound, how does the IC50 read?
A: The IC50 was 120 nM.

Q: Which IC50 does the source give for `COCCN1C(=O)N(Cc2cccc(OC)c2)C(=O)C12CCN(Cc1ccc3cc(OC)ccc3c1)CC2` [Example 135] here?
A: Its IC50 is 123 nM.

Q: For `COCN1C(=O)N(C/C=C/c2ccccc2)C(=O)C12CCN(Cc1cc(OC)cc(OC)c1)CC2` [Example 136], which IC50 is on record?
A: The IC50 was 124 nM.

Q: How did the IC50 turn out when `CCN1C(=O)N(Cc2cccc(OC)c2)C(=O)C12CCN(Cc1cc(OC)cc(OC)c1)CC2` [Example 137] was run?
A: Its IC50 is 124 nM.
